Measurements from PubChem BioAssay (NCI).
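Method: 48-hour compound exposure of cells in 96-well plates, five concentrations, linear interpolation of endpoints. GI50 marks 50% less growth. TGI is the concentration that stops growth completely.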

Key:
Experiment in all cases: NCI anticancer screen, dose series, 48 h
786-0 renal = tested on: 786-0 renal
A498 renal = tested on: A498 renal
A549 NSCLC = tested on: A549 NSCLC
ACHN renal = tested on: ACHN renal
BT-549 breast = tested on: BT-549 breast
CAKI-1 renal = tested on: CAKI-1 renal
CCRF-CEM leukemia = tested on: CCRF-CEM leukemia
COLO 205 colon = tested on: COLO 205 colon
DU-145 prostate = tested on: DU-145 prostate
EKVX NSCLC = tested on: EKVX NSCLC
HCC-2998 colon = tested on: HCC-2998 colon
HCT-116 colon = tested on: HCT-116 colon
HCT-15 colon = tested on: HCT-15 colon
HL-60(TB) leukemia = tested on: HL-60(TB) leukemia
HOP-62 NSCLC = tested on: HOP-62 NSCLC
HOP-92 NSCLC = tested on: HOP-92 NSCLC
HS 578T breast = tested on: HS 578T breast
HT29 colon = tested on: HT29 colon
IGROV1 ovarian = tested on: IGROV1 ovarian
K-562 leukemia = tested on: K-562 leukemia
KM12 colon = tested on: KM12 colon
LOX IMVI melanoma = tested on: LOX IMVI melanoma
M14 melanoma = tested on: M14 melanoma
MCF7 breast = tested on: MCF7 breast
MDA-MB-231 breast = tested on: MDA-MB-231 breast
MOLT-4 leukemia = tested on: MOLT-4 leukemia
NCI-H226 lung = tested on: NCI-H226 lung
NCI-H23 lung = tested on: NCI-H23 lung
NCI-H460 lung = tested on: NCI-H460 lung
NCI-H522 lung = tested on: NCI-H522 lung
NCI/ADR-RES ovarian = tested on: NCI/ADR-RES ovarian
OVCAR-3 ovarian = tested on: OVCAR-3 ovarian
OVCAR-4 ovarian = tested on: OVCAR-4 ovarian
OVCAR-5 ovarian = tested on: OVCAR-5 ovarian
OVCAR-8 ovarian = tested on: OVCAR-8 ovarian
PC-3 prostate = tested on: PC-3 prostate
RPMI-8226 leukemia = tested on: RPMI-8226 leukemia
RXF 393 renal = tested on: RXF 393 renal
SF-268 CNS = tested on: SF-268 CNS
SF-295 CNS = tested on: SF-295 CNS
SF-539 CNS = tested on: SF-539 CNS
SK-MEL-2 melanoma = tested on: SK-MEL-2 melanoma
SK-MEL-28 melanoma = tested on: SK-MEL-28 melanoma
SK-MEL-5 melanoma = tested on: SK-MEL-5 melanoma
SK-OV-3 ovarian = tested on: SK-OV-3 ovarian
SN12C renal = tested on: SN12C renal
SNB-19 CNS = tested on: SNB-19 CNS
SNB-75 CNS = tested on: SNB-75 CNS
SR leukemia = tested on: SR leukemia
SW-620 colon = tested on: SW-620 colon
T-47D breast = tested on: T-47D breast
TK-10 renal = tested on: TK-10 renal
U251 CNS = tested on: U251 CNS
UACC-257 melanoma = tested on: UACC-257 melanoma
UACC-62 melanoma = tested on: UACC-62 melanoma
UO-31 renal = tested on: UO-31 renal

COc1cccc2c1-c1c(c3ccc([N+](=O)[O-])cc3c(=O)n1CCCN)C2=O showed a GI50 (786-0 renal) of 479 nM, a TGI (786-0 renal) of 987 nM and a GI50 (A498 renal) of 15700 nM. It also gave a TGI (A498 renal) of 32800 nM, a GI50 (A549 NSCLC) of 11000 nM and a TGI (A549 NSCLC) of 34400 nM. For the same compound, the GI50 (ACHN renal) was 884 nM, the TGI (ACHN renal) was 6650 nM and the GI50 (BT-549 breast) was 1720 nM. The TGI (BT-549 breast) was 3610 nM, the GI50 (CAKI-1 renal) was 15100 nM and the TGI (CAKI-1 renal) was 62700 nM. The GI50 (CCRF-CEM leukemia) was 183 nM, the TGI (CCRF-CEM leukemia) was 4760 nM and the GI50 (COLO 205 colon) was 1340 nM. It also gave a TGI (COLO 205 colon) of 3070 nM, a GI50 (DU-145 prostate) of 1060 nM and a TGI (DU-145 prostate) of 6150 nM. The GI50 (EKVX NSCLC) was 2170 nM, the TGI (EKVX NSCLC) was 5080 nM and the GI50 (HCC-2998 colon) was 3020 nM. The TGI (HCC-2998 colon) was 7000 nM, the GI50 (HCT-116 colon) was 490 nM and the TGI (HCT-116 colon) was 2250 nM. It also gave a GI50 (HCT-15 colon) of 1400 nM, a TGI (HCT-15 colon) of 3370 nM and a GI50 (HL-60(TB) leukemia) of 1620 nM. The TGI (HL-60(TB) leukemia) was 3930 nM, the GI50 (HOP-62 NSCLC) was 1130 nM and the TGI (HOP-62 NSCLC) was 2500 nM. It also gave a GI50 (HOP-92 NSCLC) of 5640 nM, a TGI (HOP-92 NSCLC) of 13300 nM and a GI50 (HS 578T breast) of 7620 nM. It also gave a TGI (HS 578T breast) of 18700 nM, a GI50 (HT29 colon) of 1240 nM and a TGI (HT29 colon) of 3080 nM. For the same compound, the GI50 (IGROV1 ovarian) was 289 nM, the TGI (IGROV1 ovarian) was 1990 nM and the GI50 (K-562 leukemia) was 218 nM. The TGI (K-562 leukemia) was 1120 nM, the GI50 (KM12 colon) was 2020 nM and the TGI (KM12 colon) was > 24100 nM. For the same compound, the GI50 (LOX IMVI melanoma) was 1200 nM, the TGI (LOX IMVI melanoma) was 2640 nM and the GI50 (M14 melanoma) was 1540 nM. It also gave a TGI (M14 melanoma) of 3000 nM, a GI50 (MCF7 breast) of 48.6 nM and a TGI (MCF7 breast) of 1590 nM. It also gave a GI50 (MDA-MB-231 breast) of 1680 nM, a TGI (MDA-MB-231 breast) of 3410 nM and a GI50 (MOLT-4 leukemia) of 29.3 nM. For the same compound, the TGI (MOLT-4 leukemia) was 340 nM, the GI50 (NCI-H226 lung) was 7670 nM and the TGI (NCI-H226 lung) was 34300 nM. It also gave a GI50 (NCI-H23 lung) of 1390 nM, a TGI (NCI-H23 lung) of 3010 nM and a GI50 (NCI-H460 lung) of 239 nM. For the same compound, the TGI (NCI-H460 lung) was 1940 nM, the GI50 (NCI-H522 lung) was 43 nM and the TGI (NCI-H522 lung) was 1890 nM. The GI50 (NCI/ADR-RES ovarian) was 3990 nM, the TGI (NCI/ADR-RES ovarian) was 19100 nM and the GI50 (OVCAR-3 ovarian) was 2300 nM. For the same compound, the TGI (OVCAR-3 ovarian) was 5710 nM, the GI50 (OVCAR-4 ovarian) was 1550 nM and the TGI (OVCAR-4 ovarian) was 3940 nM. It also gave a GI50 (OVCAR-5 ovarian) of 1880 nM, a TGI (OVCAR-5 ovarian) of 3400 nM and a GI50 (OVCAR-8 ovarian) of 1500 nM. The TGI (OVCAR-8 ovarian) was 5660 nM, the GI50 (PC-3 prostate) was 1430 nM and the TGI (PC-3 prostate) was 4030 nM. It also gave a GI50 (RPMI-8226 leukemia) of 1650 nM, a TGI (RPMI-8226 leukemia) of 5840 nM and a GI50 (RXF 393 renal) of 24100 nM. The TGI (RXF 393 renal) was > 78800 nM, the GI50 (SF-268 CNS) was 1150 nM and the TGI (SF-268 CNS) was 2940 nM. It also gave a GI50 (SF-295 CNS) of 3100 nM, a TGI (SF-295 CNS) of 14800 nM and a GI50 (SF-539 CNS) of 1520 nM. The TGI (SF-539 CNS) was 3190 nM, the GI50 (SK-MEL-2 melanoma) was 1580 nM and the TGI (SK-MEL-2 melanoma) was 3000 nM. For the same compound, the GI50 (SK-MEL-28 melanoma) was 1860 nM, the TGI (SK-MEL-28 melanoma) was 3810 nM and the GI50 (SK-MEL-5 melanoma) was 1910 nM. For the same compound, the TGI (SK-MEL-5 melanoma) was 7380 nM, the GI50 (SK-OV-3 ovarian) was 11500 nM and the TGI (SK-OV-3 ovarian) was 29800 nM. For the same compound, the GI50 (SN12C renal) was 3230 nM, the TGI (SN12C renal) was 9070 nM and the GI50 (SNB-19 CNS) was 1350 nM. It also gave a TGI (SNB-19 CNS) of 2930 nM, a GI50 (SNB-75 CNS) of 5760 nM and a TGI (SNB-75 CNS) of 25100 nM. For the same compound, the GI50 (SR leukemia) was 25.6 nM, the TGI (SR leukemia) was 379 nM and the GI50 (SW-620 colon) was 459 nM. For the same compound, the TGI (SW-620 colon) was 3200 nM, the GI50 (T-47D breast) was 1520 nM and the TGI (T-47D breast) was 3630 nM. The GI50 (TK-10 renal) was 2810 nM, the TGI (TK-10 renal) was 13200 nM and the GI50 (U251 CNS) was 1020 nM. The TGI (U251 CNS) was 2230 nM, the GI50 (UACC-257 melanoma) was 17900 nM and the TGI (UACC-257 melanoma) was 44400 nM. The GI50 (UACC-62 melanoma) was 1890 nM, the TGI (UACC-62 melanoma) was 7950 nM and the GI50 (UO-31 renal) was 1260 nM. For the same compound, the TGI (UO-31 renal) was 2590 nM.
